Experimental data taken from patent US11324728B2, “Dosing regimens for the treatment of fungal infections” (Seren Pharmaceuticals Inc., priority 2017, dated 2022).

System: onychomycosis of the toenail
Test: Phase II clinical study: changes over time in efficacy of the target nail (turbidity area ratio, clinical cure, relapse/reinfection)
Format: in vivo, human
Conditions: for Clinical cure (no visual sign of infection) / Clinical cure rate and 95% CI / Remaining of the visual sign of infection: target nail; for Clinical cure (no visual sign of infection) / Clinical cure rate and 95% CI / Remaining of the visual sign of infection / turbidity area ratio regarding the target nail, Mean / turbidity area ratio regarding the target nail, Median: PPS
Description: A Phase II clinical pharmacology study was conducted in subjects with onychomycosis of the toenail. The study investigated the pharmacokinetics, efficacy and safety of three different dosing regimens of fosravuconazole. […] The three treatment groups were as follows: • a.
The efficacy endpoints were: (1) overall clinical efficacy; (2) changes over time in efficacy; (3) confirmation of elements of dermatophytes by direct microscopy; and (4) results of identification of dermatophytes by the polymerase chain reaction (PCR) method.

C[C@@H](c1nc(-c2ccc(C#N)cc2)cs1)[C@@](Cn1cncn1)(OCOP(=O)(O)O)c1ccc(F)cc1F [fosravuconazole, 4-[2-[(1R,2R)-2-(2,4-difluorophenyl)-1-methyl-2-[(phosphonooxy)methoxy]-3-(1H-1,2,4-triazol-1-yl)propyl]-4-thiazolyl]benzo-nitrile]
relapse/reinfection (100 mg (once daily dose) group): no subject
Clinical cure (no visual sign of infection) (100 mg group, Week 48): 11
Clinical cure rate and 95% CI (100 mg group, Week 48): 44.0 (24.5, 65.0) %
Remaining of the visual sign of infection (100 mg group, Week 48): 14
turbidity area ratio regarding the target nail, Mean (100 mg, Start day of treatment): 76.9%
turbidity area ratio regarding the target nail, Median (100 mg, Start day of treatment): 75.5%
turbidity area ratio regarding the target nail, Mean (100 mg, Week 4): 72.9%
turbidity area ratio regarding the target nail, Median (100 mg, Week 4): 72.0%
turbidity area ratio regarding the target nail, Mean (100 mg, Week 8): 65.9%
turbidity area ratio regarding the target nail, Median (100 mg, Week 8): 67.0%
turbidity area ratio regarding the target nail, Mean (100 mg, Week 12): 55.6%
turbidity area ratio regarding the target nail, Median (100 mg, Week 12): 56.0%
turbidity area ratio regarding the target nail, Mean (100 mg, Week 16): 44.2%
turbidity area ratio regarding the target nail, Median (100 mg, Week 16): 46.0%
turbidity area ratio regarding the target nail, Mean (100 mg, Week 20): 34.6%
turbidity area ratio regarding the target nail, Median (100 mg, Week 20): 36.0%
turbidity area ratio regarding the target nail, Mean (100 mg, Week 24): 26.5%
turbidity area ratio regarding the target nail, Median (100 mg, Week 24): 25.0%
turbidity area ratio regarding the target nail, Mean (100 mg, Week 28): 19.4%
turbidity area ratio regarding the target nail, Median (100 mg, Week 28): 18.0%
turbidity area ratio regarding the target nail, Mean (100 mg, Week 32): 14.4%
turbidity area ratio regarding the target nail, Median (100 mg, Week 32): 15.0%
turbidity area ratio regarding the target nail, Mean (100 mg, Week 36): 12.0%
turbidity area ratio regarding the target nail, Median (100 mg, Week 36): 9.0%
turbidity area ratio regarding the target nail, Mean (100 mg, Week 40): 9.6%
turbidity area ratio regarding the target nail, Median (100 mg, Week 40): 12.0%
turbidity area ratio regarding the target nail, Mean (100 mg, Week 44): 8.6%
turbidity area ratio regarding the target nail, Median (100 mg, Week 44): 8.0%
turbidity area ratio regarding the target nail, Mean (100 mg, Week 48): 9.3%
turbidity area ratio regarding the target nail, Median (100 mg, Week 48): 6.0%
relapse/reinfection (200 mg (pulse treatment) group): 4 subjects
Clinical cure (no visual sign of infection) (200 mg group, Week 48): 7
Clinical cure rate and 95% CI (200 mg group, Week 48): 31.8 (13.9, 54.8) %
Remaining of the visual sign of infection (200 mg group, Week 48): 15
turbidity area ratio regarding the target nail, Mean (200 mg, Start day of treatment): 76.4%
turbidity area ratio regarding the target nail, Median (200 mg, Start day of treatment): 74.0%
turbidity area ratio regarding the target nail, Mean (200 mg, Week 4): 69.6%
turbidity area ratio regarding the target nail, Median (200 mg, Week 4): 70.0%
turbidity area ratio regarding the target nail, Mean (200 mg, Week 8): 59.8%
turbidity area ratio regarding the target nail, Median (200 mg, Week 8): 58.5%
turbidity area ratio regarding the target nail, Mean (200 mg, Week 12): 51.4%
turbidity area ratio regarding the target nail, Median (200 mg, Week 12): 49.0%
turbidity area ratio regarding the target nail, Mean (200 mg, Week 16): 45.0%
turbidity area ratio regarding the target nail, Median (200 mg, Week 16): 45.0%
turbidity area ratio regarding the target nail, Mean (200 mg, Week 20): 35.8%
turbidity area ratio regarding the target nail, Median (200 mg, Week 20): 34.0%
turbidity area ratio regarding the target nail, Mean (200 mg, Week 24): 27.9%
turbidity area ratio regarding the target nail, Median (200 mg, Week 24): 25.0%
turbidity area ratio regarding the target nail, Mean (200 mg, Week 28): 23.3%
turbidity area ratio regarding the target nail, Median (200 mg, Week 28): 18.0%
turbidity area ratio regarding the target nail, Mean (200 mg, Week 32): 20.0%
turbidity area ratio regarding the target nail, Median (200 mg, Week 32): 9.0%
turbidity area ratio regarding the target nail, Mean (200 mg, Week 36): 18.2%
turbidity area ratio regarding the target nail, Median (200 mg, Week 36): 11.5%
turbidity area ratio regarding the target nail, Mean (200 mg, Week 40): 16.0%
turbidity area ratio regarding the target nail, Median (200 mg, Week 40): 10.0%
turbidity area ratio regarding the target nail, Mean (200 mg, Week 44): 13.5%
turbidity area ratio regarding the target nail, Median (200 mg, Week 44): 5.0%
turbidity area ratio regarding the target nail, Mean (200 mg, Week 48): 14.6%
turbidity area ratio regarding the target nail, Median (200 mg, Week 48): 9.0%
Clinical cure (no visual sign of infection) (300 mg group, Week 48): 11
Clinical cure rate and 95% CI (300 mg group, Week 48): 40.7 (22.4, 61.2) %
Remaining of the visual sign of infection (300 mg group, Week 48): 16
relapse/reinfection (400 mg group): 1 subject
turbidity area ratio regarding the target nail, Mean (400 mg, Start day of treatment): 74.4%
turbidity area ratio regarding the target nail, Median (400 mg, Start day of treatment): 76.0%
turbidity area ratio regarding the target nail, Mean (400 mg, Week 4): 66.9%
turbidity area ratio regarding the target nail, Median (400 mg, Week 4): 67.0%
turbidity area ratio regarding the target nail, Mean (400 mg, Week 8): 57.4%
turbidity area ratio regarding the target nail, Median (400 mg, Week 8): 59.0%
turbidity area ratio regarding the target nail, Mean (400 mg, Week 12): 49.3%
turbidity area ratio regarding the target nail, Median (400 mg, Week 12): 52.0%
turbidity area ratio regarding the target nail, Mean (400 mg, Week 16): 40.6%
turbidity area ratio regarding the target nail, Median (400 mg, Week 16): 41.0%
turbidity area ratio regarding the target nail, Mean (400 mg, Week 20): 31.1%
turbidity area ratio regarding the target nail, Median (400 mg, Week 20): 29.0%
turbidity area ratio regarding the target nail, Mean (400 mg, Week 24): 25.7%
turbidity area ratio regarding the target nail, Median (400 mg, Week 24): 20.0%
turbidity area ratio regarding the target nail, Mean (400 mg, Week 28): 18.3%
turbidity area ratio regarding the target nail, Median (400 mg, Week 28): 16.0%
turbidity area ratio regarding the target nail, Mean (400 mg, Week 32): 14.9%
turbidity area ratio regarding the target nail, Median (400 mg, Week 32): 12.0%
turbidity area ratio regarding the target nail, Mean (400 mg, Week 36): 13.5%
turbidity area ratio regarding the target nail, Median (400 mg, Week 36): 9.0%
turbidity area ratio regarding the target nail, Mean (400 mg, Week 40): 11.8%
turbidity area ratio regarding the target nail, Median (400 mg, Week 40): 6.0%
turbidity area ratio regarding the target nail, Mean (400 mg, Week 44): 11.9%
turbidity area ratio regarding the target nail, Median (400 mg, Week 44): 6.0%
turbidity area ratio regarding the target nail, Mean (400 mg, Week 48): 12.7%
turbidity area ratio regarding the target nail, Median (400 mg, Week 48): 8.0%
